The text below walks through data of patent US20110166192A1, “PROCESS FOR CHARGING A POLYMERIC PRODUCT WITH ATTRIBUTE IMPARTING AGENT(S)” (ADITYA BIRLA SCIENCE & TECHNOLOGY CO. LTD., priority 2008, published 2011).

This experiment has as its system Staphylococcus Aureus bacteria strain ATCC 6538. Nature of the experiment: Sustained/control release of anti-bacterial agent from the polymeric product at various temperatures, AATCC 147 zone of inhibition (FIG. 2). The experiment is classed as cell-based. To be noted: polymeric product containing reservoir (melting range of 35-65° C.) with triclosan, 24 hr contact time. How it is done:
The activity of an anti-bacterial agent in the polymeric product was conducted by Qualitative AATCC 147 method. The test was conducted with Staphylococcus Aureus bacteria strain ATCC 6538. Observation of growth under the specimen accompanied with no zone of inhibition was considered as No (i.e. failed test with no anti-bacterial activity) and no growth under the specimen, with or without zone of inhibition was considered as Yes (passed test with anti-bacterial activity).
Also the polymeric product containing reservoir (melting range of 35-65° C.) was incorporated with triclosan as anti-bacterial ingredient. The product was washed and dried at ambient temperature of 20° C. after which the fabric was maintained at said temperature for 30 minutes and measured for efficacy. Anti-bacterial analysis was done based on AATCC 147 with 24 hr contact time and the zone of inhibition (in mm) was measured. The sustained/control release of an anti-bacterial agent in the polymeric product was studied at various temperatures. The results are displaced in FIG. 2 of accompanying drawings.

The structures appear in SMILES notation.

As for `Oc1cc(Cl)ccc1Oc1ccc(Cl)cc1Cl` [triclosan, 5-chloro-2-(2,4-dichlorophenoxy)phenol], the “release profile of anti-bacterial agent (zone of inhibition)” value was “sustained/control release profile with temperature”.
